Results published in paper PMC9224473 (International Journal of Molecular Sciences, 2022).
Converted amounts (≈) assume the structure as drawn. Like-named read-outs stand apart in the source and are kept apart here.

Key:
S. aureus NCTC 4163 = assay: MIC, broth microdilution, standard strain; assay type: cell-based, Staphylococcus aureus; settings: 35 °C; for MIC: Staphylococcus aureus, NCTC4163, 19 h
S. aureus ATCC 25923 = assay: MIC, broth microdilution, standard strain; assay type: cell-based, Staphylococcus aureus; settings: 35 °C; for MIC: Staphylococcus aureus, ATCC25923, 19 h
[1] = test system: standard bacteria strains; assay: Antimicrobial screening (MIC), standard bacteria strains; assay type: cell-based; settings: MIC evaluation
Protocol: Obtained compounds were examined for antimicrobial potency. Firstly, all of them were screened for their minimal inhibitory concentrations (MICs). A suitable set of bacteria was used, including representative standard Gram-positive and Gram-negative rods (Table 2 and Table 3). For clarity, results are presented for menthol and thymol derivatives separately.
The antimicrobial assays were conducted using reference strains of bacteria derived from international microbe collections: American Type Culture Collection (ATCC) and National Collection of Type Culture (NCTC). The following standard strains of bacteria were used: Gram-positive—Staphylococcus aureus NCTC 4163, Staphylococcus aureus ATCC 25923, Staphylococcus aureus ATCC 6538, Staphylococcus aureus ATCC 29213, Staphylococcus epidermidis ATCC 12228, Staphylococcus epidermidis ATCC 35984, Gram-negative: Escherichia coli ATCC 25922, Pseudomonas aeruginosa ATCC 15442. […] Antimicrobial activity was examined by the Minimal Inhibitory Concentration (MIC) method under standard procedures provided by CLSI with some modifications. MIC was determined by the two-fold serial broth microdilution method in 96-well microtitration plates using Mueller–Hinton II broth medium (Becton Dickinson, Franklin Lakes, NJ, USA). The final inoculum of all studied bacteria was 10^6 CFU/mL (colony forming unit per millilitre). The stock solution of tested compounds was prepared in dimethyl sulfoxide (DMSO) and diluted to a maximum of 1% of solvent content with a sterile medium.

[2] = test system: SW620 (human metastatic colon cancer); assay: MTT cytotoxicity assay; assay type: cell-based; settings: mean SD
Protocol: (§1) The human cell lines SW480 (primary colon cancer), SW620 (lymph node metastatic colon cancer from the same patient as primary cancer cells), HCT116 (colon carcinoma), HepG2 (liver cancer), and HaCaT (immortalized keratinocytes) were obtained from the American Type Culture Collection (ATCC, Rockville, MD, USA). The SW480, SW620 and HCT116 cells were grown in MEM (ThermoSci, Waltham, MA, USA), HepG2 and HaCaT in DMEM High Glucose (Biowest SAS, Nuaillé, France) supplemented with 10% foetal bovine serum (FBS), HEPES (20 mM), and antibiotics (100 U mL^−1 of Penicillin and 100 μg mL^−1 of Streptomycin). The cells were incubated in a humidified incubator at 37 °C/5% CO2, until 80–90% confluence was reached.
The cell viability was assessed by using of MTT salt [3-(4,5-dimethylthiazol-2-yl)-2,5-diphenyltetrazolium bromide] converted by mitochondrial dehydrogenase, occurring in living cells. […] The untreated cells were used as the control.
(§2) Subsequently, the medium was removed and dimethyl sulfoxide (DMSO) with isopropanol (1:1) was added to dissolve the formazan crystals. The optical density was measured using UVM 340 reader (ASYS Hitech GmbH, Eugendorf, Austria) at a wavelength of 570 nm. The experiments were repeated three times. The cell viability was calculated as the percent of MTT reduced in treated cells versus control cells (untreated cells). The number of viable cells cultured without tested compounds was assumed as 100%. A decreased relative MTT level indicates decreased cell viability. The IC50 values were estimated using CompuSyn version 1.0.

P. aeruginosa ATCC 15442 = assay: MIC, broth microdilution, standard strain; assay type: cell-based, Pseudomonas aeruginosa; settings: 35 °C; for MIC: Pseudomonas aeruginosa, ATCC15442, 19 h
[3] = test system: HCT116 (human colon cancer); assay: MTT cytotoxicity assay; assay type: cell-based; settings: mean SD
Protocol: as §1
(§3) The cell viability was assessed by using of MTT salt [3-(4,5-dimethylthiazol-2-yl)-2,5-diphenyltetrazolium bromide] converted by mitochondrial dehydrogenase, occurring in living cells. The cells were seeded in 96-well plates at a density of 1 × 10^4 cells per well and allowed to adhere for 24 h at 37 °C in a CO2 humidified incubator. […]. The untreated cells were used as the control.
as §2, with “After 72 h incubation, the medium was replaced with 200 µL per well of free-serum medium containing 0.5 mg mL^−1 MTT and incubated for 4 h at 37 °C in a CO2 humidified incubator. Subsequently,” for “Subsequently,”

[4] = test system: HepG2 (human liver cancer); assay: MTT cytotoxicity assay; assay type: cell-based; settings: mean SD
Protocol: as §1, §3
as §2, with “After 72 h incubation, the medium was replaced with 200 µL per well of free-serum medium containing 0.5 mg mL^−1 MTT and incubated for 4 h at 37 °C in a CO2 humidified incubator. Subsequently,” for “Subsequently,”

[5] = test system: SW480 (human primary colon cancer); assay: MTT cytotoxicity assay; assay type: cell-based; settings: mean SD
Protocol: as §1, §3
as §2, with “After 72 h incubation, the medium was replaced with 200 µL per well of free-serum medium containing 0.5 mg mL^−1 MTT and incubated for 4 h at 37 °C in a CO2 humidified incubator. Subsequently,” for “Subsequently,”

[6] = test system: HaCaT (human immortal keratinocyte cell line); assay: MTT cytotoxicity assay; assay type: cell-based; settings: 72 h, mean SD, read-out: IC50 HaCaT (normal cells)
Protocol: as §1, §3
as §2, with “After 72 h incubation, the medium was replaced with 200 µL per well of free-serum medium containing 0.5 mg mL^−1 MTT and incubated for 4 h at 37 °C in a CO2 humidified incubator. Subsequently,” for “Subsequently,”

E. coli ATCC 25922 = assay: MIC, broth microdilution, standard strain; assay type: cell-based, Escherichia coli; settings: 35 °C; for MIC: Escherichia coli, ATCC25922, 19 h
[7] = test system: S. epidermidis ATCC 12228; assay: MIC, broth microdilution, standard strain; assay type: cell-based, Staphylococcus epidermidis; settings: 35 °C; for MIC: Staphylococcus epidermidis, ATCC12228, 19 h
S. aureus ATCC 6538 = assay: MIC, broth microdilution, standard strain; assay type: cell-based, Staphylococcus aureus; settings: 35 °C; for MIC: Staphylococcus aureus, ATCC6538, 19 h
S. aureus ATCC 29213 = assay: MIC, broth microdilution, standard strain; assay type: cell-based, Staphylococcus aureus; settings: 35 °C; for MIC: Staphylococcus aureus, ATCC29213, 19 h
[8] = test system: S. epidermidis ATCC 35984; assay: MIC, broth microdilution, standard strain; assay type: cell-based, Staphylococcus epidermidis; settings: 35 °C; for MIC: Staphylococcus epidermidis, ATCC35984, 19 h

Compound | Antimicrobial activity (in words) [1] | MIC (S. aureus NCTC 4163) [µg/mL] | MIC (S. aureus ATCC 25923) [µg/mL] | IC50 ([2]; Homo sapiens, SW-620, 72 h) [µM] | MIC (P. aeruginosa ATCC 15442) [µg/mL] | IC50 ([3]; Homo sapiens, HCT-116, 72 h) [µM] | IC50 ([4]; Homo sapiens, HepG2, 72 h) [µM] | IC50 ([5]; Homo sapiens, SW480, 72 h) [µM] | IC50 ([6]; Homo sapiens, HaCaT) [µM] | MIC (E. coli ATCC 25922) [µg/mL] | MIC [7] [µg/mL] | MIC (S. aureus ATCC 6538) [µg/mL] | MIC (S. aureus ATCC 29213) [µg/mL] | MIC [8] [µg/mL] | further results
2-(2-isopropyl-5-methylphenoxy)-2-oxobutyl-1-cyclopropyl-6-fluoro-7-{4-[2-(2-isopropyl-5-methylphenoxy)-2-oxobutyl]piperazin-1-yl}-4-oxo-1,4-dihydroquinoline-3-carboxylate [Compound 15] | rather inactive |  |  |  |  |  |  |  |  |  |  |  |  |  | MIC S. aureus NCTC 4163 (S. aureus NCTC 4163; 19 h): 64 µg/mL; MIC S. aureus ATCC 25923 (S. aureus ATCC 25923; 19 h): 64 µg/mL; IC50 ([2]; 72 h): 57.4 ± 3.6 µM; MIC P. aeruginosa ATCC 15442 (P. aeruginosa ATCC 15442; 19 h): >256 µg/mL; IC50 ([3]; 72 h): 48.2 ± 5.3 µM; IC50 ([4]; 72 h): 61.8 ± 1.5 µM; IC50 ([5]; 72 h): 40.8 ± 4.2 µM; IC50 [6]: 67.1 ± 4.6 µM; MIC E. coli ATCC 25922 (E. coli ATCC 25922; 19 h): 128 µg/mL; MIC S. epidermidis ATCC 12228 ([7]; 19 h): 128 µg/mL; MIC S. aureus ATCC 6538 (S. aureus ATCC 6538; 19 h): 128 µg/mL; MIC S. aureus ATCC 29213 (S. aureus ATCC 29213; 19 h): 256 µg/mL; MIC S. epidermidis ATCC 35984 ([8]; 19 h): 128 µg/mL
CC(C)[C@@H]1CC[C@@H](C)C[C@H]1OC(=O)CCCCOC(=O)c1cn(C2CC2)c2cc(N3CCN(CCCCC(=O)O[C@@H]4C[C@H](C)CC[C@H]4C(C)C)CC3)c(F)cc2c1=O [Compound 7, 5-((1R,2S,5R)-2-isopropyl-5-methylcyclohexyloxy)-5-oxopentyl-1-cyclopropyl-6-fluoro-7-{4-[5-((1R,2S,5R)-2-isopropyl-5-methylcyclohexyloxy)-5-oxopentyl]piperazin-1-yl}-4-oxo-1,4-dihydroquinoline-3-carboxylate] | rather inactive | > 256 | > 256 | 54.1 ± 0.5 | > 256 | 49.3 ± 6.5 | 32.8 ± 3.1 | 45.5 ± 5.5 | 25.6 ± 1.2 | > 256 | > 256 | > 256 | > 256 | > 256 | 
CC(C)[C@@H]1CC[C@@H](C)C[C@H]1OC(=O)CCCCCOC(=O)c1cn(C2CC2)c2cc(N3CCN(CCCCCC(=O)O[C@@H]4C[C@H](C)CC[C@H]4C(C)C)CC3)c(F)cc2c1=O [Compound 8, 6-((1R,2S,5R)-2-isopropyl-5-methylcyclohexyloxy)-6-oxohexyl-1-cyclopropyl-6-fluoro-7-{4-[6-((1R,2S,5R)-2-isopropyl-5-methylcyclohexyloxy)-6-oxohexyl]piperazin-1-yl}-4-oxo-1,4-dihydroquinoline-3-carboxylate] | rather inactive | > 256 | > 256 | 48.7 ± 2.8 | > 256 | 31.6 ± 7.4 | 30.2 ± 1.9 | 78.2 ± 5.8 | 33.4 ± 3.8 | > 256 | > 256 | > 256 | > 256 | > 256 | 
Cc1ccc(C(C)C)c(OC(=O)CCCCCOC(=O)c2cn(C3CC3)c3cc(N4CCN(CCCCCC(=O)Oc5cc(C)ccc5C(C)C)CC4)c(F)cc3c2=O)c1 [Compound 16] | rather inactive | 128 (≈ 155 µM) | 128 (≈ 155 µM) | 49.6 ± 7 | > 256 | 30.5 ± 2.3 | 41.8 ± 2.5 | 29.5 ± 1.9 | 64.9 ± 5.1 | > 256 | 128 (≈ 155 µM) | 64 (≈ 77.7 µM) | 256 (≈ 311 µM) | 128 (≈ 155 µM) | 
